In test [1] the target is mTOR (human recombinant aa mTOR 1360-2549) (Homo sapiens (Human), UniProt P42345). The experiment in a line: mTOR enzymatic test by TR-FRET (phosphorylation of GFP-4EBP1). The class given is biochemical. The essentials:
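After a 30 min room-temperature kinase reaction, EDTA (10 mM final) and Tb-labelled phospho-Thr46 antibody (2 nM final) were added and incubated 60 min. Energy transfer from Tb to phosphorylated GFP-4EBP1 was read at 340 nm excitation, emissions 490/520 nm. Values derive from the 520/490 fluorescence ratio.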

The subject of another test is Akt-pS473 in U87MG cells. Particulars: Homo sapiens, U-87 MG; for IC50: read-out: U87 Akt-pS473 % Inhibition or IC50, nM (IC50), U87MG cells; for inhibition at 3 µM: read-out: U87 Akt-pS473 % Inhibition.
The subject of another test is U87MG tumour cells. Description: Test of in vitro proliferation of U87MG tumour cells. Particulars: Homo sapiens, U-87 MG, 72 h, U87MG cells, 72 hours; read-out: U87 Cell Proliferation IC50. Type of test: cell-based. As to the method:
Model 4: Test of in vitro Proliferation of U87MG Tumour Cells.
The cell growth is determined with the reagent CellTiter 96 AQueous One Solution Cell Proliferation Assay from Promega (Cat. No. G3581).

Another test deals with PI3Kα (p110α/p85α) (Homo sapiens (Human), UniProt P42336). The experiment in a line: PI3Kα enzymatic test by measuring the consumption of ATP. The class given is biochemical. The essentials: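 ATP consumption read out by KinaseGlo luminescence after a 90 min reaction of 1.7 μg/ml PI3Kα (p110α/p85α) with 2 μM ATP and 50 μM PIP2, buffered at pH 7.5 (Tris, 10 mM MgCl2, 1 mM EGTA, 0.03% Chaps, 1 mM DTT). Threefold dilution series over ≥10 000-fold range yield IC50.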
Chain of PI3Kα (p110α/p85α) (P42336 whole entry): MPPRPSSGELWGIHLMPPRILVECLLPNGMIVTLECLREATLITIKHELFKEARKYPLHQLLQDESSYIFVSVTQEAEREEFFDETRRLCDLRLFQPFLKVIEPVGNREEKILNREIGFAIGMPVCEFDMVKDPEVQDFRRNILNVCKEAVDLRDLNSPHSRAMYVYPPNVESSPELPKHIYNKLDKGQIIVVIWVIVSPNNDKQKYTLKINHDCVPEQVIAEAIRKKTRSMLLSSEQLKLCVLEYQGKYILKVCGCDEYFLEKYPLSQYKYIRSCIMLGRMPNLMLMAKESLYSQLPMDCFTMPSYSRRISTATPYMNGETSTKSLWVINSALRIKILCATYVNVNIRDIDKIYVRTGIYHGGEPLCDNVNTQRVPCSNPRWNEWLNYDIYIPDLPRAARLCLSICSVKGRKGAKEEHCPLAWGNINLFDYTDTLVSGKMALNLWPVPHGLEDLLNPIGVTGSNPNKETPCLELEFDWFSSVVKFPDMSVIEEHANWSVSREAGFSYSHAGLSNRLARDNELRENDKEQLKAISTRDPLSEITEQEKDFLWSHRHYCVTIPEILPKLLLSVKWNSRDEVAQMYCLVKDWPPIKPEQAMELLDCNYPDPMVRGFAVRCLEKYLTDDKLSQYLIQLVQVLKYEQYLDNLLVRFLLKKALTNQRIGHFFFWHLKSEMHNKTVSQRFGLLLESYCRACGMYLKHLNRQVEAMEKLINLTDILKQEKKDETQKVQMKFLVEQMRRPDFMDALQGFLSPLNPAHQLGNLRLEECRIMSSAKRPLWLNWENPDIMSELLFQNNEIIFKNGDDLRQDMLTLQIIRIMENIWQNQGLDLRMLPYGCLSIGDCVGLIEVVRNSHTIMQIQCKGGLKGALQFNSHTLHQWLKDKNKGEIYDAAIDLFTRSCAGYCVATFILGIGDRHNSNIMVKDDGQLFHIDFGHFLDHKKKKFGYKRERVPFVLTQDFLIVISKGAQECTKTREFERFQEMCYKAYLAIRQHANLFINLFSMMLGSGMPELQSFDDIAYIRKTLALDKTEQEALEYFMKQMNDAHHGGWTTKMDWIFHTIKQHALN
Chain of PI3Kα (p110α/p85α) (P27986 whole entry partner): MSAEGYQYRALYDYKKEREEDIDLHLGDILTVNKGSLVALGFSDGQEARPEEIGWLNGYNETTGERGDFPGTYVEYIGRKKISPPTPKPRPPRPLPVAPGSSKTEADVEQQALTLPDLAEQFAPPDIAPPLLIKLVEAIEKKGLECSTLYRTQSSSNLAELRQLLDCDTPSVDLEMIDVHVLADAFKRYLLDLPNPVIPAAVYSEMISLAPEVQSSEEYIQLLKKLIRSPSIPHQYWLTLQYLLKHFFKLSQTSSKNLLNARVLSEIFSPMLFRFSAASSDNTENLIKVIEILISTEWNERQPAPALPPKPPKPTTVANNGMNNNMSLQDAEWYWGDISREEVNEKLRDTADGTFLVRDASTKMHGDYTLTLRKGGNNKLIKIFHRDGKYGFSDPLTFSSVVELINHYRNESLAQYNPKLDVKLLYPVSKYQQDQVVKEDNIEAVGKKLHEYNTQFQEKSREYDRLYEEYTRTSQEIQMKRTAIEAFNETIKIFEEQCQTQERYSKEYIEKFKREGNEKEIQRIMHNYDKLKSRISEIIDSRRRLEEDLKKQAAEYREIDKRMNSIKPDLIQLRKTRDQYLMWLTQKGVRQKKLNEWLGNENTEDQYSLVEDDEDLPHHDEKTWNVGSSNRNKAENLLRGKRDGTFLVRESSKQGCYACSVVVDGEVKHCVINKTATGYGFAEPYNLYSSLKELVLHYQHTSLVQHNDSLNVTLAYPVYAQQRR

The structures appear in SMILES notation.

As usually defined, the inhibition is the percentage by which the read-out fell short of the control.

Chain of mTOR (human recombinant aa mTOR 1360-2549) (P42345 1360-2549): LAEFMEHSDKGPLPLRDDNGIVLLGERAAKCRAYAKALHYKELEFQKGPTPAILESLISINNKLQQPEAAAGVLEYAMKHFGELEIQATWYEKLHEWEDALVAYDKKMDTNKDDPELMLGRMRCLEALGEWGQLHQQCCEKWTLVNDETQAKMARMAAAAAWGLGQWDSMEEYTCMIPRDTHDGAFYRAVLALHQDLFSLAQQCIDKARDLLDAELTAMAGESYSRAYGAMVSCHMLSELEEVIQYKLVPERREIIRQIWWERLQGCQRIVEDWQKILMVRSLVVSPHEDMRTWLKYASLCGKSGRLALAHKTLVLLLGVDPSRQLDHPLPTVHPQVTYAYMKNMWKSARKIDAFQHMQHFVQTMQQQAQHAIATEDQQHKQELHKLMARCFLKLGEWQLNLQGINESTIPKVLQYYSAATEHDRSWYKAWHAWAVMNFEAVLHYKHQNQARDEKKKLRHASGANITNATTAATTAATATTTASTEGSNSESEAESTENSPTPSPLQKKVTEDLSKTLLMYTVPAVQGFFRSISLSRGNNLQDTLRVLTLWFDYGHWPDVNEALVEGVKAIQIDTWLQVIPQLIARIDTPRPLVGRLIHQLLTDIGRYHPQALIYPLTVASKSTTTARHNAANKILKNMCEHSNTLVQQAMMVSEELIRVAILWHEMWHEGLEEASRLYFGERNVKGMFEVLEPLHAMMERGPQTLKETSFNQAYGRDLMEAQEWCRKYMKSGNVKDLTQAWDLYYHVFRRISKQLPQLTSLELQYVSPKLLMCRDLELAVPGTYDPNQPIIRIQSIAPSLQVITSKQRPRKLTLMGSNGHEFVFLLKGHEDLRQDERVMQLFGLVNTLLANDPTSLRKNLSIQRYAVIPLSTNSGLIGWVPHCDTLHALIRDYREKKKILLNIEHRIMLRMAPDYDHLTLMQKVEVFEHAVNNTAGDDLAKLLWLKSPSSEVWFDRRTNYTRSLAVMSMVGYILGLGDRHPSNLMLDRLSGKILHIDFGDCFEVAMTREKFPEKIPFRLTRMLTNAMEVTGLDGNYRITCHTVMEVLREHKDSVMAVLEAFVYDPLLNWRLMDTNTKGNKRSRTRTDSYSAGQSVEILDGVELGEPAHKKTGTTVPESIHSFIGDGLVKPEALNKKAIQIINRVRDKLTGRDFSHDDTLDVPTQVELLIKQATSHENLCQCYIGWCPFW
Method for Akt-pS473 in U87MG cells: Model 3: Cellular Test of Phosphorylation of the Epitope S473 of the Akt Protein on the U87MG Line Via an ELISA Test
An electrochemiluminescence signal is generated by a ruthenium-labelled anti-rabbit antibody.
After culturing for 16-20 hours (the cells are at 100% of confluence) at 37° C. under 5% CO2, 1 μl of the chemical compounds in 100% DMSO (1% DMSO final concentration on the cells) is added. The cells are incubated with the compounds for 3 hours at 37° C. under 5% CO2.
The free sites are blocked with 150 μl/well of a buffer of 50 mM Tris pH 7.5, 0.15 M NaCl, 0.02% Tween 20, 3% BSA with stirring at 450 rpm for 1 hour at room temperature, followed by a step of washing with 3×300 μl of a buffer of 50 mM Tris pH 7.5, 0.15 M NaCl, 0.02% Tween 20.
15 μl of cell lysate are mixed with 15 μl of a 50 mM buffer of Tris pH 7.5, 0.15 M NaCl, 0.02% Tween 20, 1% BSA in a precoated ELISA plate (see above), and incubated for 1 hour at room temperature with stirring, followed by a step of washing with 3×300 μl of a buffer of 50 mM Tris pH 7.5, 0.15 M NaCl, 0.02% Tween 20. The pS473 epitope of Akt is detected with a rabbit polyclonal antibody (Cell Signaling, SC9271), diluted 100-fold in 50 mM Tris pH 7.5, 0.15 M NaCl, 0.02% Tween 20, 1% BSA, 25 μl/well (incubation for 1 hour at room temperature with stirring at 450 rpm).
After washing (see above), revelation is performed with a ruthenium-labelled anti-rabbit antibody (MSD R32AB1), diluted 3000-fold in a 50 mM buffer of Tris pH 7.5, 0.15 M NaCl, 0.02% Tween 20, 1% BSA, 25 μl/well, followed by incubation for 1 hour at room temperature with stirring at 450 rpm, and the plates are covered with aluminium.
After a further washing step, the plates are emptied and 150 μl of MSD Read Buffer T diluted fourfold with water are added. The electrochemiluminescence is measured on the MSD Sector Imager 6000.

Turning to `CCN1CC(C)(C)Oc2nc(N3CCOC[C@@H]3C)nc(-c3ccc(NC(=O)Nc4ccccn4)cc3)c2C1=O` [Example 221, 1-{4-[6-Ethyl-8,8-dimethyl-2-((S)-3-methylmorpholin-4-yl)-5-oxo-5,6,7,8-tetrahydro-9-oxa-1,3,6-triazabenzocyclohepten-4-yl]phenyl}-3-pyridin-2-ylurea], the IC50 stood at 13 nM in test [1], 11 nM with Akt-pS473 in U87MG cells and 137 nM in the test with U87MG tumour cells. Besides, the “PI3Ka IC50” value on PI3Kα (p110α/p85α) is recorded as 372 nM.
Take `CCN1CC(C)(C)Oc2nc(N3CC4CCC(C3)O4)nc(-c3ccc(NC(=O)Nc4ccc(C)cn4)cc3)c2C1=O` [Example 34, 1-{4-[6-Ethyl-8,8-dimethyl-2-(8-oxa-3-azabicyclo[3.2.1]oct-3-yl)-5-oxo-5,6,7,8-tetrahydro-9-oxa-1,3,6-triazabenzocyclohepten-4-yl]phenyl}-3-(5-methylpyridin-2-yl)urea]: the IC50 in test [1] amounted to 43 nM; in the test on Akt-pS473 in U87MG cells it was 70 nM; in the test with U87MG tumour cells, 320 nM. For the same compound, on PI3Kα (p110α/p85α), the “PI3Ka IC50” value is listed as over 10000 nM.
For `CCN1CC(C)(C)Oc2nc(N3CCOC[C@@H]3C)nc(-c3ccc(NC(=O)Nc4ccc(C)cn4)cc3)c2C1=O` [Example 168, 1-{4-[6-Ethyl-8,8-dimethyl-2-((S)-3-methylmorpholin-4-yl)-5-oxo-5,6,7,8-tetrahydro-9-oxa-1,3,6-triazabenzocyclohepten-4-yl]phenyl}-3-(5-methylpyridin-2-yl)urea] the same measures were 18 nM, 48 nM, 231 nM and 1385 nM.
In the case of `CCNC(=O)Nc1ccc(-c2nc(N3CC4CCC(C3)O4)nc3c2C(=O)N(CCOC)CC(C)(C)O3)cc1` [Example 217, 1-Ethyl-3-{4-[6-(2-methoxyethyl)-8,8-dimethyl-2-(8-oxa-3-azabicyclo[3.2.1]oct-3-yl)-5-oxo-5,6,7,8-tetrahydro-9-oxa-1,3,6-triazabenzocyclohepten-4-yl]phenyl}urea], the IC50 in test [1] amounted to 59 nM; in the test with U87MG tumour cells, 1760 nM. The inhibition at 3 µM with Akt-pS473 in U87MG cells came out at 80%. Further, the “PI3Ka IC50” value on PI3Kα (p110α/p85α) is reported as over 10000 nM.
Consider `CCN1CC(C)(C)Oc2nc(N3CC4CCC(C3)O4)nc(-c3ccc(NC(=O)Nc4ccc(C(=O)N5CCC(N(C)C)CC5)cc4)cc3)c2C1=O` [Example 177, 1-[4-(4-Dimethylaminopiperidine-1-carbonyl)phenyl]-3-{4-[6-ethyl-8,8-dimethyl-2-(8-oxa-3-azabicyclo[3.2.1]oct-3-yl)-5-oxo-5,6,7,8-tetrahydro-9-oxa-1,3,6-triazabenzocyclohepten-4-yl]phenyl}urea], for which the IC50 was 84 nM in test [1], 435 nM with Akt-pS473 in U87MG cells and 57 nM in the test with U87MG tumour cells. Besides, at PI3Kα (p110α/p85α), the “PI3Ka IC50” value came to 87 nM.
Taken in the same sequence, the figures for `CCN1CC(C)(C)Oc2nc(N3CC4CCC(C3)O4)nc(-c3ccc(Nc4nnc(C)s4)cc3)c2C1=O` [Example 121, 6-Ethyl-8,8-dimethyl-4-[4-(5-methyl-[1,3,4]thiadiazol-2-ylamino)phenyl]-2-(8-oxa-3-azabicyclo[3.2.1]oct-3-yl)-7,8-dihydro-6H-9-oxa-1,3,6-triazabenzocyclohepten-5-one] were 66 nM, 130 nM, 802 nM and over 10000 nM.
Taken in the same sequence, the figures for `Cc1cc(NC(=O)Nc2ccc(-c3nc(N4CC5CCC(C4)O5)nc4c3C(=O)N(C3CCOCC3)CC(C)(C)O4)cc2)no1` [Example 15, 1-{4-[8,8-dimethyl-2-(8-oxa-3-azabicyclo[3.2.1]oct-3-yl)-5-oxo-6-(tetrahydropyran-4-yl)-5,6,7,8-tetrahydro-9-oxa-1,3,6-triazabenzocyclohepten-4-yl]phenyl}-3-(5-methylisoxazol-3-yl)urea] were 12 nM, 76 nM, 218 nM and 5300 nM.
Taken in the same sequence, the figures for `CCN1CC(C)(C)Oc2nc(N3CCOC[C@@H]3C)nc(-c3ccc(NC(=O)Nc4ccon4)c(F)c3)c2C1=O` [Example 159, 1-{4-[6-Ethyl-8,8-dimethyl-2-((S)-3-methylmorpholin-4-yl)-5-oxo-5,6,7,8-tetrahydro-9-oxa-1,3,6-triazabenzocyclohepten-4-yl]-2-fluorophenyl}-3-isoxazol-3-ylurea] were 18 nM, 21 nM, 98 nM and 561 nM.
Regarding `CCN1CC(C)(C)Oc2nc(N3CCOC[C@@H]3C)nc(-c3ccc(NC(=O)Nc4ccc(N5CCN(C)CC5)nc4)cc3)c2C1=O` [Example 174, 1-{4-[6-Ethyl-8,8-dimethyl-2-((S)-3-methylmorpholin-4-yl)-5-oxo-5,6,7,8-tetrahydro-9-oxa-1,3,6-triazabenzocyclohepten-4-yl]phenyl}-3-[6-(4-methylpiperazin-1-yl)pyridin-3-yl]urea], the IC50 in test [1] was found to be 22 nM; in the test on Akt-pS473 in U87MG cells, 36 nM; with U87MG tumour cells it was 125 nM. The “PI3Ka IC50” value at PI3Kα (p110α/p85α) is given as 326 nM.
For `CCN1CC(C)(C)Oc2nc(N3CC4CCC(C3)O4)nc(-c3ccc(NC(=O)Nc4cc(OC)c(F)cc4F)cc3)c2C1=O` [Example 155, 1-(2,4-Difluoro-5-methoxyphenyl)-3-{4-[6-ethyl-8,8-dimethyl-2-(8-oxa-3-azabicyclo[3.2.1]oct-3-yl)-5-oxo-5,6,7,8-tetrahydro-9-oxa-1,3,6-triazabenzocyclohepten-4-yl]phenyl}urea] the same measures were 79 nM, 59 nM, 142 nM and over 10000 nM.
Taken in the same sequence, the figures for `CCN1CC(C)(C)Oc2nc(N3CCOC[C@@H]3C)nc(-c3ccc(NC(=O)Nc4cc(OC)ccn4)cc3)c2C1=O` [Example 184, 1-{4-[6-Ethyl-8,8-dimethyl-2-((S)-3-methylmorpholin-4-yl)-5-oxo-5,6,7,8-tetrahydro-9-oxa-1,3,6-triazabenzocyclohepten-4-yl]phenyl}-3-(4-methoxypyridin-2-yl)urea] were 12 nM, 65 nM, 368 nM and 12978 nM.
Taken in the same sequence, the figures for `CCN1CC(C)(C)Oc2nc(N3CCOC[C@@H]3C)nc(-c3ccc(NC(=O)Nc4cc(OC)ccn4)cc3F)c2C1=O` [Example 242, 1-{4-[6-Ethyl-8,8-dimethyl-2-((S)-3-methylmorpholin-4-yl)-5-oxo-5,6,7,8-tetrahydro-9-oxa-1,3,6-triazabenzocyclohepten-4-yl]-3-fluorophenyl}-3-(4-methoxypyridin-2-yl)urea] were 89 nM, 770 nM, 2300 nM and over 10000 nM.
On to `CCN1CC(C)(C)Oc2nc(N3C4CCC3COC4)nc(-c3ccc(NC(=O)Nc4ccnc(C)c4)c(F)c3)c2C1=O` [Example 55, 1-{4-[6-Ethyl-8,8-dimethyl-2-(3-oxa-8-azabicyclo[3.2.1]oct-8-yl)-5-oxo-5,6,7,8-tetrahydro-9-oxa-1,3,6-triazabenzocyclohepten-4-yl]-2-fluorophenyl}-3-(2-methylpyridin-4-yl)urea], for which the figures for the IC50 (in test [1]; in the test with Akt-pS473 in U87MG cells; in the test with U87MG tumour cells) were 66 nM, 27 nM and 54 nM, respectively. Besides, the “PI3Ka IC50” value on PI3Kα (p110α/p85α) amounted to 4810 nM.
With `CCN1CC(C)(C)Oc2nc(N3CC4CCC(C3)O4)nc(-c3ccc(NC(=O)Nc4cn(C)cn4)c(F)c3)c2C1=O` [Example 194, 1-{4-[6-Ethyl-8,8-dimethyl-2-(8-oxa-3-azabicyclo[3.2.1]oct-3-yl)-5-oxo-5,6,7,8-tetrahydro-9-oxa-1,3,6-triazabenzocyclohepten-4-yl]-2-fluorophenyl}-3-(1-methyl-1H-imidazol-4-yl)urea], the IC50 in test [1] was 27 nM; with U87MG tumour cells, 2130 nM. Besides, in the test on Akt-pS473 in U87MG cells, the inhibition at 3 µM came to 62%. The “PI3Ka IC50” value at PI3Kα (p110α/p85α) came to 1230 nM.
On to `CCN1CC(C)(C)Oc2nc(N3CCOC[C@@H]3C)nc(-c3ccc(NC(=O)Nc4ccccc4F)cc3)c2C1=O` [Example 202, 1-{4-[6-Ethyl-8,8-dimethyl-2-((S)-3-methylmorpholin-4-yl)-5-oxo-5,6,7,8-tetrahydro-9-oxa-1,3,6-triazabenzocyclohepten-4-yl]phenyl}-3-(2-fluorophenyl)urea], for which the IC50 in test [1] came to 19 nM; in the test with Akt-pS473 in U87MG cells it was 5 nM; in the test on U87MG tumour cells, 73 nM. In addition, at PI3Kα (p110α/p85α), the “PI3Ka IC50” value was 213 nM.
For the compound `CCN1CC(C)(C)Oc2nc(N3CCOC[C@@H]3C)nc(-c3ccc(NC(=O)OCCO)c(F)c3)c2C1=O` [Example 209, {4-[6-Ethyl-8,8-dimethyl-2-((S)-3-methylmorpholin-4-yl)-5-oxo-5,6,7,8-tetrahydro-9-oxa-1,3,6-triazabenzocyclohepten-4-yl]-2-fluorophenyl}carbamic acid 2-hydroxyethyl ester], the figures for the IC50 (in test [1]; in the test on Akt-pS473 in U87MG cells; with U87MG tumour cells) were 155 nM, 69 nM and 1050 nM, respectively. Besides, the “PI3Ka IC50” value at PI3Kα (p110α/p85α) is over 10000 nM.
